Test results: US8247211B2, “Glycopeptide antibiotics” (American Cyanamid Company, priority 2001, dated 2012)
In brackets after ≈: the same amount, converted by molar mass. Each block holds one compound with its values, some of them ahead of it.

What was measured:
Test in all cases: In vitro antibacterial evaluation: minimum inhibitory concentration (MIC), broth dilution method
Type in all cases: cell-based
[1] = test system: Escherichia coli
[2] = test system: Enterococcus sp.
Procedure, shortened: (§1)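 Broth dilution per NCCLS M7-A2 in Muller-Hinton II […], inoculum 5×10^5 CFU/mL, antibiotic tested over 64-0.06 μg/mL. MIC is taken as the lowest concentration that inhibits growth. Panel includes recent clinical isolates resistant to methicillin, penicillin and/or vancomycin.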

[3] = test system: Staphylococcus sp.; details: 18 hours at 35° C.
Procedure, shortened: as §1

[4] = test system: Escherichia coli; remark: listed apart in the source
Procedure, shortened: as §1

[5] = test system: Streptococcus sp.; details: broth dilution, 18 hours at 35° C.; for MIC Streptococcus pyogenes (GC 4563): strain GC 4563
Procedure, shortened: as §1

[6] = Enterococcus faecalis (ATCC 29212)
[7] = Enterococcus faecalis (GC 4553)
[8] = Enterococcus faecalis (GC 4554)

- MIC Escherichia coli (ATCC 25922) [1]: >64 µg/mL
- MIC Enterococcus avium (GC 4558) ([2]; Enterococcus avium (GC 4558)): 64 µg/mL (≈ 46.2 µM)
- MIC Enterococcus faecalis (ATCC 29212) [2, 6]: 64 µg/mL (≈ 46.2 µM)
- MIC Enterococcus faecalis (GC 4553) [2, 7]: >64 µg/mL
- MIC Enterococcus faecalis (GC 4554) [2, 8]: >64 µg/mL
- MIC Enterococcus faecium (GC 2243) ([2]; Enterococcus faecium (GC 2243)): >64 µg/mL
- MIC Enterococcus faecium (GC 4556) ([2]; Enterococcus faecium (GC 4556)): 64 µg/mL (≈ 46.2 µM)
- MIC Enterococcus faecium (GC 4557) ([2]; Enterococcus faecium (GC 4557)): 8 µg/mL (≈ 5.77 µM)
- MIC Coagulase Negative Staphylococcus (GC 4547) [3]: 8 µg/mL (≈ 5.77 µM)
- MIC Coagulase Negative Staphylococcus (GC 4547) ([3]; broth dilution): 8 µg/mL (≈ 5.77 µM)
- MIC Coagulase Negative Staphylococcus (GC 4548) [3]: 8 µg/mL (≈ 5.77 µM)
- MIC Coagulase Negative Staphylococcus (GC 4548) ([3]; broth dilution): 8 µg/mL (≈ 5.77 µM)
- MIC Coagulase Negative Staphylococcus (GC 4549) [3]: 4 µg/mL (≈ 2.89 µM)
- MIC Coagulase Negative Staphylococcus (GC 4549) ([3]; broth dilution): 4 µg/mL (≈ 2.89 µM)
- MIC Coagulase Negative Staphylococcus (GC 4551) [3]: 8 µg/mL (≈ 5.77 µM)
- MIC Coagulase Negative Staphylococcus (GC 4551) ([3]; broth dilution): 8 µg/mL (≈ 5.77 µM)
- MIC Staphylococcus aureus (ATCC 29213) [3]: 16 µg/mL (≈ 11.5 µM)
- MIC Staphylococcus aureus (ATCC 29213) ([3]; broth dilution): 16 µg/mL (≈ 11.5 µM)
- MIC Staphylococcus aureus (GC 1131) [3]: 32 µg/mL (≈ 23.1 µM)
- MIC Staphylococcus aureus (GC 1131) ([3]; broth dilution): 32 µg/mL (≈ 23.1 µM)
- MIC Staphylococcus aureus (GC 4541) [3]: 16 µg/mL (≈ 11.5 µM)
- MIC Staphylococcus aureus (GC 4541) ([3]; broth dilution): 16 µg/mL (≈ 11.5 µM)
- MIC Staphylococcus aureus (GC 4542) [3]: 16 µg/mL (≈ 11.5 µM)
- MIC Staphylococcus aureus (GC 4542) ([3]; broth dilution): 16 µg/mL (≈ 11.5 µM)
- MIC Staphylococcus aureus (GC 4544) [3]: 8 µg/mL (≈ 5.77 µM)
- MIC Staphylococcus aureus (GC 4544) ([3]; broth dilution): 8 µg/mL (≈ 5.77 µM)
- MIC Staphylococcus aureus (GC 4545) [3]: 16 µg/mL (≈ 11.5 µM)
- MIC Staphylococcus aureus (GC 4545) ([3]; broth dilution): 16 µg/mL (≈ 11.5 µM)
- MIC Staphylococcus aureus-SMITH (GC 4543) [3]: 8 µg/mL (≈ 5.77 µM)
- MIC Staphylococcus aureus-SMITH (GC 4543) ([3]; broth dilution): 8 µg/mL (≈ 5.77 µM)
- MIC Escherichia coli (GC 4559) [4]: >64 µg/mL
- MIC Escherichia coli (GC 4560) [4]: 4 µg/mL (≈ 2.89 µM)
- MIC Streptococcus pyogenes (GC 4563) [5]: 4 µg/mL (≈ 2.89 µM)
- MIC Streptococcus pyogenes (ID-3187) ([5]; strain ID-3187): 64 µg/mL (≈ 46.2 µM)
SMILES: CC(C)CC(=O)OC1C(OC2C(CO)OC(Oc3ccc(CC4NC(=O)C(C(C)c5cccs5)NC(=O)CNC(=O)C(CO)NC(=O)C(C(O)C5CNC(=N)N5C5OC(CO)C(O)C(O)C5O)NC(=O)C(C(O)C5CNC(=N)N5)NC4=O)cc3)C(O)C2O)OC(CO)C(O)C1O (stereo not shown) [Example 265a, Cyclo[3-(2-thienyl)-2-aminobutanoyl-O-[4-O-[2-O-(3-methylbutanoyl)hexopyranosyl]hexopyranosyl]tyrosyl-3-(2-iminoimidazolidin-4-yl)seryl-3-(3-hexopyranosyl-2-iminoimidazolidin-4-yl)serylserylglycyl]]
- MIC Staphylococcus haemolyticus (GC 4546) [3]: 8 µg/mL (≈ 5.77 µM)
- MIC Staphylococcus haemolyticus (GC 4546) ([3]; broth dilution): 8 µg/mL (≈ 5.77 µM)

- MIC Escherichia coli (ATCC 25922) [1]: >64 µg/mL
- MIC Enterococcus avium (GC 4558) ([2]; Enterococcus avium (GC 4558)): 64 µg/mL (≈ 48.8 µM)
- MIC Enterococcus faecalis (ATCC 29212) [2, 6]: >64 µg/mL
- MIC Enterococcus faecalis (GC 4553) [2, 7]: >64 µg/mL
- MIC Enterococcus faecalis (GC 4554) [2, 8]: >64 µg/mL
- MIC Enterococcus faecalis (GC 6189) ([2]; Enterococcus faecalis (GC 6189)): >64 µg/mL
- MIC Enterococcus faecium (GC 2243) ([2]; Enterococcus faecium (GC 2243)): >64 µg/mL
- MIC Enterococcus faecium (GC 4556) ([2]; Enterococcus faecium (GC 4556)): >64 µg/mL
- MIC Enterococcus faecium (GC 4557) ([2]; Enterococcus faecium (GC 4557)): 64 µg/mL (≈ 48.8 µM)
- MIC Enterococcus faecalis (ATCC 29212) ([2]; broth dilution, 18 hours at 35° C., strain ATCC 29212): >64 µg/mL
- MIC Enterococcus faecalis (GC 2242) ([2]; broth dilution, 18 hours at 35° C., strain GC 2242): >64 µg/mL
- MIC Enterococcus faecium (GC 2243) ([2]; broth dilution, 18 hours at 35° C., strain GC 2243): >64 µg/mL
- MIC Enterococcus faecalis (GC 2691) ([2]; broth dilution, 18 hours at 35° C., strain GC 2691): >64 µg/mL
- MIC Enterococcus faecalis (GC 3059) ([2]; broth dilution, 18 hours at 35° C., strain GC 3059): >64 µg/mL
- MIC Enterococcus faecalis (GC 4552) ([2]; broth dilution, 18 hours at 35° C., strain GC 4552): >64 µg/mL
- MIC Enterococcus faecalis (GC 4553) ([2]; broth dilution, 18 hours at 35° C., strain GC 4553): >64 µg/mL
- MIC Enterococcus faecalis (GC 4554) ([2]; broth dilution, 18 hours at 35° C., strain GC 4554): >64 µg/mL
- MIC Enterococcus faecium (GC 4556) ([2]; broth dilution, 18 hours at 35° C., strain GC 4556): >64 µg/mL
- MIC Enterococcus faecium (GC 4557) ([2]; broth dilution, 18 hours at 35° C., strain GC 4557): 64 µg/mL (≈ 48.8 µM)
- MIC Enterococcus avium (GC 4558) ([2]; broth dilution, 18 hours at 35° C., strain GC 4558): 64 µg/mL (≈ 48.8 µM)
- MIC Enterococcus faecalis (GC 6189) ([2]; broth dilution, 18 hours at 35° C., strain GC 6189): >64 µg/mL
- MIC Coagulase Negative Staphylococcus (GC 4547) [3]: >64 µg/mL
- MIC Coagulase Negative Staphylococcus (GC 4547) ([3]; broth dilution): >64 µg/mL
- MIC Coagulase Negative Staphylococcus (GC 4548) [3]: >64 µg/mL
- MIC Coagulase Negative Staphylococcus (GC 4548) ([3]; broth dilution): >64 µg/mL
- MIC Coagulase Negative Staphylococcus (GC 4549) [3]: >64 µg/mL
- MIC Coagulase Negative Staphylococcus (GC 4549) ([3]; broth dilution): >64 µg/mL
- MIC Coagulase Negative Staphylococcus (GC 4551) [3]: >64 µg/mL
- MIC Coagulase Negative Staphylococcus (GC 4551) ([3]; broth dilution): >64 µg/mL
- MIC Coagulase Negative Staphylococcus (GC 6257) [3]: >64 µg/mL
- MIC Coagulase Negative Staphylococcus (GC 6257) ([3]; broth dilution): >64 µg/mL
- MIC Staphylococcus aureus (ATCC 29213) [3]: >64 µg/mL
- MIC Staphylococcus aureus (ATCC 29213) ([3]; broth dilution): >64 µg/mL
- MIC Staphylococcus aureus (GC 1131) [3]: >64 µg/mL
- MIC Staphylococcus aureus (GC 1131) ([3]; broth dilution): >64 µg/mL
- MIC Staphylococcus aureus (GC 3051) [3]: >64 µg/mL
- MIC Staphylococcus aureus (GC 3051) ([3]; broth dilution): >64 µg/mL
- MIC Staphylococcus aureus (GC 3053) [3]: >64 µg/mL
- MIC Staphylococcus aureus (GC 3053) ([3]; broth dilution): >64 µg/mL
- MIC Staphylococcus aureus (GC 4541) [3]: >64 µg/mL
- MIC Staphylococcus aureus (GC 4541) ([3]; broth dilution): >64 µg/mL
- MIC Staphylococcus aureus (GC 4542) [3]: >64 µg/mL
- MIC Staphylococcus aureus (GC 4542) ([3]; broth dilution): >64 µg/mL
- MIC Staphylococcus aureus (GC 4544) [3]: >64 µg/mL
- MIC Staphylococcus aureus (GC 4544) ([3]; broth dilution): >64 µg/mL
- MIC Staphylococcus aureus (GC 4545) [3]: >64 µg/mL
- MIC Staphylococcus aureus (GC 4545) ([3]; broth dilution): >64 µg/mL
- MIC Staphylococcus aureus-SMITH (GC 4543) [3]: >64 µg/mL
- MIC Staphylococcus aureus-SMITH (GC 4543) ([3]; broth dilution): >64 µg/mL
- MIC Escherichia coli (GC 4559) [4]: >64 µg/mL
- MIC Escherichia coli (GC 4560) [4]: >64 µg/mL
- MIC Streptococcus pneumoniae (ATCC 6301) ([5]; strain ATCC 6301): 64 µg/mL (≈ 48.8 µM)
- MIC Streptococcus pneumoniae (GC 1894) ([5]; strain GC 1894): 64 µg/mL (≈ 48.8 µM)
- MIC Streptococcus pyogenes (GC 4563) [5]: >64 µg/mL
- MIC Streptococcus agalactiae (GC 4564) ([5]; strain GC 4564): >64 µg/mL
- MIC Streptococcus pneumoniae (GC 4565) ([5]; strain GC 4565): 64 µg/mL (≈ 48.8 µM)
SMILES: CC(c1ccccc1)C1NC(=O)CNC(=O)C(CO)NC(=O)C(C(O)C2CNC(=N)N2C2OC(CO)C(O)C(O)C2O)NC(=O)C(C(O)C2CNC(=N)N2)NC(=O)C(Cc2ccc(OC3OC(CO)C(OC4OC(CO)C(O)C(O)C4O)C(O)C3O)cc2N)NC1=O (stereo not drawn) [Example 287, Cyclo[glycyl-β-methylphenylalanyl-2-amino-O-(4-O-hexopyranosylhexopyranosyl)tyrosyl-3-(2-iminoimidazolidin-4-yl)seryl-3-(3-hexopyranosyl-2-iminoimidazolidin-4-yl)serylseryl]]
- MIC Staphylococcus haemolyticus (GC 4546) [3]: >64 µg/mL
- MIC Staphylococcus haemolyticus (GC 4546) ([3]; broth dilution): >64 µg/mL
